Reference: ChEMBL document CHEMBL4507285, “Data for DCP probe MRL-SYKi” (2021)

What was measured:
[1] = target: Ephrin type-A receptor 8 (Homo sapiens) (UniProt P29322); conditions: Compound concentration 100.0 nM
[2] = target: Calcium/calmodulin-dependent protein kinase type II subunit delta (Homo sapiens) (UniProt Q13557); conditions: Compound concentration 100.0 nM
[3] = target: Serine/threonine-protein kinase pim-3 (Homo sapiens) (UniProt Q86V86); conditions: Compound concentration 100.0 nM
[4] = target: Mitogen-activated protein kinase kinase kinase 3 (Homo sapiens) (UniProt Q99759); conditions: Compound concentration 100.0 nM
[5] = system: Receptor-type tyrosine-protein kinase FLT3 (Homo sapiens), P36888 [N841I]; conditions: Compound concentration 100.0 nM
[6] = target: Homeodomain-interacting protein kinase 1 (Homo sapiens) (UniProt Q86Z02); conditions: Compound concentration 100.0 nM
[7] = target: Activin receptor type-2A (Homo sapiens) (UniProt P27037); conditions: Compound concentration 100.0 nM
[8] = target: Serine/threonine-protein kinase Nek1 (Homo sapiens) (UniProt Q96PY6); conditions: Compound concentration 100.0 nM
[9] = target: Angiopoietin-1 receptor (Homo sapiens) (UniProt Q02763); conditions: Compound concentration 100.0 nM
[10] = target: Serine/threonine-protein kinase MRCK gamma (Homo sapiens) (UniProt Q6DT37); conditions: Compound concentration 100.0 nM
[11] = target: Serine/threonine-protein kinase SIK3 (Homo sapiens) (UniProt Q9Y2K2); conditions: Compound concentration 100.0 nM
[12] = target: Myosin-IIIa (Homo sapiens) (UniProt Q8NEV4); conditions: Compound concentration 100.0 nM
[13] = target: Receptor-interacting serine/threonine-protein kinase 1 (Homo sapiens) (UniProt Q13546); conditions: Compound concentration 100.0 nM
[14] = target: Dual specificity protein kinase CLK3 (Homo sapiens) (UniProt P49761); conditions: Compound concentration 100.0 nM
[15] = target: Sodium-dependent dopamine transporter (Homo sapiens) (UniProt Q01959); conditions: Compound concentration 10.0 uM
[16] = target: Tyrosine-protein kinase JAK1 (Homo sapiens) (UniProt P23458); conditions: Compound concentration 100.0 nM
[17] = target: Activin receptor type-1-like (Homo sapiens) (UniProt P37023); conditions: Compound concentration 100.0 nM
[18] = target: Cyclin-dependent kinase 7 (Homo sapiens) (UniProt P50613); conditions: Compound concentration 100.0 nM
[19] = target: Glycogen synthase kinase-3 beta (Homo sapiens) (UniProt P49841); conditions: Compound concentration 100.0 nM
[20] = target: Serine/threonine-protein kinase 38-like (Homo sapiens) (UniProt Q9Y2H1); conditions: Compound concentration 100.0 nM
[21] = target: Beta-3 adrenergic receptor (Homo sapiens) (UniProt P13945); conditions: Compound concentration 10.0 uM
[22] = target: Serine/threonine-protein kinase Sgk2 (Homo sapiens) (UniProt Q9HBY8); conditions: Compound concentration 100.0 nM
[23] = system: Tyrosine-protein kinase ABL1 (Homo sapiens), P00519 [E255K]; conditions: Compound concentration 100.0 nM
[24] = target: Ribosomal protein S6 kinase alpha-4 (Homo sapiens) (UniProt O75676); conditions: Compound concentration 100.0 nM
[25] = target: Non-receptor tyrosine-protein kinase TNK1 (Homo sapiens) (UniProt Q13470); conditions: Compound concentration 100.0 nM
[26] = target: Atypical kinase COQ8A, mitochondrial (Homo sapiens) (UniProt Q8NI60); conditions: Compound concentration 100.0 nM
[27] = target: Myosin light chain kinase, smooth muscle (Homo sapiens) (UniProt Q15746); conditions: Compound concentration 100.0 nM
[28] = target: Mitogen-activated protein kinase kinase kinase 5 (Homo sapiens) (UniProt Q99683); conditions: Compound concentration 100.0 nM
[29] = target: Phosphatidylinositol 4-phosphate 3-kinase C2 domain-containing subunit beta (Homo sapiens) (UniProt O00750); conditions: Compound concentration 100.0 nM
[30] = target: Muscarinic acetylcholine receptor M4 (Homo sapiens) (UniProt P08173); conditions: Compound concentration 10.0 uM
[31] = target: Aurora kinase B (Homo sapiens) (UniProt Q96GD4); conditions: Compound concentration 100.0 nM
[32] = system: Epidermal growth factor receptor (Homo sapiens), P00533 [T790M]; conditions: Compound concentration 100.0 nM
[33] = target: Myosin light chain kinase (Homo sapiens) (UniProt Q32MK0); conditions: Compound concentration 100.0 nM
[34] = target: Protein kinase C iota type (Homo sapiens) (UniProt P41743); conditions: Compound concentration 100.0 nM
[35] = target: Mitogen-activated protein kinase 8 (Homo sapiens) (UniProt P45983); conditions: Compound concentration 100.0 nM
[36] = target: Serine/threonine-protein kinase MARK1 (Homo sapiens) (UniProt Q9P0L2); conditions: Compound concentration 100.0 nM
[37] = target: Tyrosine-protein kinase Lyn (Homo sapiens) (UniProt P07948); conditions: Compound concentration 100.0 nM
[38] = system: Mast/stem cell growth factor receptor Kit (Homo sapiens), P10721 [V559D]; conditions: Compound concentration 100.0 nM
[39] = target: Phosphatidylinositol 3-kinase catalytic subunit type 3 (Homo sapiens) (UniProt Q8NEB9); conditions: Compound concentration 100.0 nM
[40] = target: Alpha-2B adrenergic receptor (Homo sapiens) (UniProt P18089); conditions: Compound concentration 10.0 uM
[41] = target: Serine/threonine-protein kinase Sgk1 (Homo sapiens) (UniProt O00141); conditions: Compound concentration 100.0 nM
[42] = target: Serine/threonine-protein kinase D1 (Homo sapiens) (UniProt Q15139); conditions: Compound concentration 100.0 nM
[43] = system: Tyrosine-protein kinase ABL1 (Homo sapiens), P00519 [F317I]; conditions: Compound concentration 100.0 nM
[44] = target: Cyclin-dependent kinase 3 (Homo sapiens) (UniProt Q00526); conditions: Compound concentration 100.0 nM
[45] = target: Mitogen-activated protein kinase kinase kinase 14 (Homo sapiens) (UniProt Q99558); conditions: Compound concentration 100.0 nM
[46] = target: Serine/threonine-protein kinase tousled-like 2 (Homo sapiens) (UniProt Q86UE8); conditions: Compound concentration 100.0 nM
Chain of Serine/threonine-protein kinase tousled-like 2 (Homo sapiens) (Q86UE8 whole entry, looked up): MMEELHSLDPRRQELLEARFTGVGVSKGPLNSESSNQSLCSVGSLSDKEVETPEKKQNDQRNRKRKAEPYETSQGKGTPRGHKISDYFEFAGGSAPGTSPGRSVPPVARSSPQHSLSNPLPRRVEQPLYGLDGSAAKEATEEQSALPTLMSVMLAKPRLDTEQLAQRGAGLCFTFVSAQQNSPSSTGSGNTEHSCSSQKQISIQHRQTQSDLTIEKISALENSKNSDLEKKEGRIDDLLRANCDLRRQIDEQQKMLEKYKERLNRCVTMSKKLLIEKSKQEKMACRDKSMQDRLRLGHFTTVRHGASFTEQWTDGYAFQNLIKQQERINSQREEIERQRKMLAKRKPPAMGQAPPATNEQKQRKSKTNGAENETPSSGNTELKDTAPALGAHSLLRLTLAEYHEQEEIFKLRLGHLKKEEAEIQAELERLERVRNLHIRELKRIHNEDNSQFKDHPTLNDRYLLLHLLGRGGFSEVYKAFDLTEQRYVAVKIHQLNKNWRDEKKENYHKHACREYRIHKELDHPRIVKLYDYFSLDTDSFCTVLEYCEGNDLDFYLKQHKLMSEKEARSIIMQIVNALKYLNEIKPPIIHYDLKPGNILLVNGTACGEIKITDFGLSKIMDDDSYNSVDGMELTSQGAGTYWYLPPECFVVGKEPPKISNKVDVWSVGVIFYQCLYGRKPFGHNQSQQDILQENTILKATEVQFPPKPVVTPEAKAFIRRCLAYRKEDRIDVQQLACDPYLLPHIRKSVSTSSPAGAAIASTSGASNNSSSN

Chain of Beta-3 adrenergic receptor (Homo sapiens) (P13945 whole entry, looked up): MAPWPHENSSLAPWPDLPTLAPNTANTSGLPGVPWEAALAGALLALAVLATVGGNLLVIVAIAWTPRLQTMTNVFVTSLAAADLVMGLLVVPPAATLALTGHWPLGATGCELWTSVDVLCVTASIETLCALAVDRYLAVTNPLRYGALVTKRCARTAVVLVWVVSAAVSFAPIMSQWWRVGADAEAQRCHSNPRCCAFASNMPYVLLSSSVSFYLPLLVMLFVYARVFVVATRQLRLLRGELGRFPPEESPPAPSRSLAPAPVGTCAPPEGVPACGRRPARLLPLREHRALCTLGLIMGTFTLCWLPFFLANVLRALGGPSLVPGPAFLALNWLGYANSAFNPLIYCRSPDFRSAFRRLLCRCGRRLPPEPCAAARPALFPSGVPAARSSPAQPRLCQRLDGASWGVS
Chain of Serine/threonine-protein kinase D1 (Homo sapiens) (Q15139 whole entry): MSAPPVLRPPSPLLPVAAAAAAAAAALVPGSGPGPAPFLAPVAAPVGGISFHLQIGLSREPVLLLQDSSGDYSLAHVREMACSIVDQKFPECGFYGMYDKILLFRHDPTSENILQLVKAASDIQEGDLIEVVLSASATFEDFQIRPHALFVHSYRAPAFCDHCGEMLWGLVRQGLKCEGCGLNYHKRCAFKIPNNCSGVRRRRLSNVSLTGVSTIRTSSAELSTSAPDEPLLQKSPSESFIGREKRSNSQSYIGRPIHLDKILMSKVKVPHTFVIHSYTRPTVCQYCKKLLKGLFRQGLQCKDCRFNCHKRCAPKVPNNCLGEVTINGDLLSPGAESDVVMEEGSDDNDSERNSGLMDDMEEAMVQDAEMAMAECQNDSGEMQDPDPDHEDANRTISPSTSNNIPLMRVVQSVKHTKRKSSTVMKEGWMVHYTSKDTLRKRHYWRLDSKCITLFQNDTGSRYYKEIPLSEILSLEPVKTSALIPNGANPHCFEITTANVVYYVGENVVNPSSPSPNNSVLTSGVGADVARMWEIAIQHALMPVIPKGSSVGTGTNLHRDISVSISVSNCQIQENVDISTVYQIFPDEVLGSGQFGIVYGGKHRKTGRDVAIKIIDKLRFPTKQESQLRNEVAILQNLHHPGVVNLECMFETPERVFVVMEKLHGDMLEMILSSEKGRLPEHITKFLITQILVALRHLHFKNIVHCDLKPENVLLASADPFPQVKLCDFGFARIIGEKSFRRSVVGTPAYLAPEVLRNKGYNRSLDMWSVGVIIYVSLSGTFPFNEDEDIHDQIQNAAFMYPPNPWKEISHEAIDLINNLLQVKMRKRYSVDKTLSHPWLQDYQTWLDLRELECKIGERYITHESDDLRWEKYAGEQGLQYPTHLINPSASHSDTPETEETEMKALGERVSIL
Chain of Glycogen synthase kinase-3 beta (Homo sapiens) (P49841 whole entry, looked up): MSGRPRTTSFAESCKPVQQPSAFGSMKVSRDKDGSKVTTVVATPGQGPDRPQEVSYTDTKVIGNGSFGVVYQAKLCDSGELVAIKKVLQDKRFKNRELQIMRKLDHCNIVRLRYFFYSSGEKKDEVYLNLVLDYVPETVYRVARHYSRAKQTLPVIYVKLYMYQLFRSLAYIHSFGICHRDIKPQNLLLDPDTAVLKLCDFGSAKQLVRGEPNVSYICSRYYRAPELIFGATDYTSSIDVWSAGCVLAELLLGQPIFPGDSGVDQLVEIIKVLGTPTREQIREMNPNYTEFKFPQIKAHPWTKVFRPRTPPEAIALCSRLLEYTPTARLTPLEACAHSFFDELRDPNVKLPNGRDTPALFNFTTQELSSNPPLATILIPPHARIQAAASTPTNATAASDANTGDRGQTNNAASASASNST
Chain of Cyclin-dependent kinase 7 (Homo sapiens) (P50613 whole entry): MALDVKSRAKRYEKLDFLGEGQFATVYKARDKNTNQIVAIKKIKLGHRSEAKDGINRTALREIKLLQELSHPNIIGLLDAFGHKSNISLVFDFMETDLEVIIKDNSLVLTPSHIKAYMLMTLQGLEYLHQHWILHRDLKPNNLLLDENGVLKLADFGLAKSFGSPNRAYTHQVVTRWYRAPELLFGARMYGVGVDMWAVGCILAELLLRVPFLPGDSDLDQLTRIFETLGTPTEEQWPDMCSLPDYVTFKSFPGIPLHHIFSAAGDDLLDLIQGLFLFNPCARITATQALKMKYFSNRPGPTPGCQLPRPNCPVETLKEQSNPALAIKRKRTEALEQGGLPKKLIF
Chain of Calcium/calmodulin-dependent protein kinase type II subunit delta (Homo sapiens) (Q13557 whole entry): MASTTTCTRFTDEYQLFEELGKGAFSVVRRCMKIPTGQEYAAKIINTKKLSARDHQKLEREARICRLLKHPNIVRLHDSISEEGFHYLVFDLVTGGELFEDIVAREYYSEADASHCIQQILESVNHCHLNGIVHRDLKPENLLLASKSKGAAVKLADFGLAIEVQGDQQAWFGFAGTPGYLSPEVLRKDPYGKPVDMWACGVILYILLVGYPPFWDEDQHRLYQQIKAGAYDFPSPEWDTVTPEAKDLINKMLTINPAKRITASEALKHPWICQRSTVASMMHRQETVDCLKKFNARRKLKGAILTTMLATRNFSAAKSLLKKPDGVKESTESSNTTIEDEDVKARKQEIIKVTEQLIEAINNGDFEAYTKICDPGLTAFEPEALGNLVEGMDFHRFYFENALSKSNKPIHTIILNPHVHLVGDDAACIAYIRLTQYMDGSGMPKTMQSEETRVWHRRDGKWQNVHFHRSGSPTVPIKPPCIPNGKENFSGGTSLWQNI
Chain of Serine/threonine-protein kinase SIK3 (Homo sapiens) (Q9Y2K2 whole entry, looked up): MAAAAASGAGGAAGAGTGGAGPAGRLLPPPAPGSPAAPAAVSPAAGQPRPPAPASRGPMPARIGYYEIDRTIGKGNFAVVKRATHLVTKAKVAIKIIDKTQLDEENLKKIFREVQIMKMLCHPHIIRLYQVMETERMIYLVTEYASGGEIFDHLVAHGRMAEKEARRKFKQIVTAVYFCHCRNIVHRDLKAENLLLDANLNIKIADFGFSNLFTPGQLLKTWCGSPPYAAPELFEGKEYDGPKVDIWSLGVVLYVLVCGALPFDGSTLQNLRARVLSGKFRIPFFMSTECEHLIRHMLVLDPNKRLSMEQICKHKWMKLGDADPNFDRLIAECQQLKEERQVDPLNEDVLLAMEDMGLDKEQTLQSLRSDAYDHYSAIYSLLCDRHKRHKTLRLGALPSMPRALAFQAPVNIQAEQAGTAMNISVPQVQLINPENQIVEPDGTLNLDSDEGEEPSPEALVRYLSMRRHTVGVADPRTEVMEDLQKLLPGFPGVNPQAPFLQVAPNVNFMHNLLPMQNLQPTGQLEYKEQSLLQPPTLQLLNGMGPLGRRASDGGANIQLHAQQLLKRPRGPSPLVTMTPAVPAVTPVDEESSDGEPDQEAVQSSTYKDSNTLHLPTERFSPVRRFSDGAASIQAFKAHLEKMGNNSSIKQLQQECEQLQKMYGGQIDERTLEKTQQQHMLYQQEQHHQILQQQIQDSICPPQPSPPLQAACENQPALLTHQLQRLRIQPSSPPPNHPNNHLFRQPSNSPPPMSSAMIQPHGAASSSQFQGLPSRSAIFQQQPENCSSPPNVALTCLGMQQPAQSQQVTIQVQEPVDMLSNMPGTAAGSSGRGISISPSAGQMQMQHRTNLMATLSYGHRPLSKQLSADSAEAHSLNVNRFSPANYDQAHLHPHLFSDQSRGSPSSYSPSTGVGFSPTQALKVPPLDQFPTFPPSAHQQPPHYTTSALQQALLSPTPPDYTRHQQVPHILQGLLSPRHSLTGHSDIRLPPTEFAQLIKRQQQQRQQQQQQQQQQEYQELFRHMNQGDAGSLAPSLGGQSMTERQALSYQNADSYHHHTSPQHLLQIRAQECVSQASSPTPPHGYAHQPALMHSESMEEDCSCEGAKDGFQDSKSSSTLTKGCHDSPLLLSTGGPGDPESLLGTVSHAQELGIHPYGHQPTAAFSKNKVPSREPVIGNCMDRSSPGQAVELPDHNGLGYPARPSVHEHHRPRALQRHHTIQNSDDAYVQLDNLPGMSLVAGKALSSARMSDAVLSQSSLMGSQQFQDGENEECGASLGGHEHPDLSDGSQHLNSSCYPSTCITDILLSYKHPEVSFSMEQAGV
Chain of Serine/threonine-protein kinase Sgk2 (Homo sapiens) (Q9HBY8 whole entry): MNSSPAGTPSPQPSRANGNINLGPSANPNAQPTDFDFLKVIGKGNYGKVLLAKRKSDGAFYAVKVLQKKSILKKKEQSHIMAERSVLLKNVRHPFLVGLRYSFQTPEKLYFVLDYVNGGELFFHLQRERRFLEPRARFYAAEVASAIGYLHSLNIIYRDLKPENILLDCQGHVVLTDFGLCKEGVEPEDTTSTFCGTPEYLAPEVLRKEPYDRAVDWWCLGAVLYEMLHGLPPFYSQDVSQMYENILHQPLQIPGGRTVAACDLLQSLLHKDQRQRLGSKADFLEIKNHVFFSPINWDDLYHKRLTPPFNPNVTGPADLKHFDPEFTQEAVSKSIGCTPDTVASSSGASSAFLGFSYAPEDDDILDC

Cc1ccc(-c2cnc([C@@]3(O)CC[C@H](C(=O)O)C(C)(C)C3)s2)cc1Nc1cccc(C(F)(F)F)n1 [MRL-SYKi-NC]
active: inhibition [15] 71%
inactive: residual activity [1] 88.9% | residual activity [2] 87.2% | residual activity [3] 89.2% | residual activity [4] 82.5% | residual activity [5] 89.3% | residual activity [6] 84.8% | residual activity [7] 96.9% | residual activity [8] 67.1% | residual activity [9] 95.2% | residual activity [10] 100% | residual activity [11] 100% | residual activity [12] 70.1% | residual activity [13] 95.9% | residual activity [14] 76% | residual activity [16] 92.6% | residual activity [17] 100% | residual activity [18] 86.2% | residual activity [19] 95.6% | residual activity [20] 100% | inhibition [21] -6.54% | residual activity [22] 57.3% | residual activity [23] 80.8% | residual activity [24] 81.3% | residual activity [25] 100% | residual activity [26] 100% | residual activity [27] 86.6% | residual activity [28] 100% | residual activity [29] 69.2% | inhibition [30] 20% | residual activity [31] 93.1% | residual activity [32] 77.8% | residual activity [33] 90.9% | residual activity [34] 96.2% | residual activity [35] 63.7% | residual activity [36] 62.8% | residual activity [37] 100% | residual activity [38] 90% | residual activity [39] 67.2% | inhibition [40] 27% | residual activity [41] 64.9% | residual activity [42] 90.1% | residual activity [43] 84.1% | residual activity [44] 92.9% | residual activity [45] 100% | residual activity [46] 89.9%

Cc1cc(Nc2nccc(C)n2)cc(-c2cnc([C@@]3(O)CC[C@H](C(=O)O)C(C)(C)C3)s2)c1 [MRL-SYKi]
active: residual activity [16] 31.8% | residual activity [35] 46.6%
inactive: residual activity [1] 100% | residual activity [2] 84.6% | residual activity [3] 100% | residual activity [4] 100% | residual activity [5] 100% | residual activity [6] 52.3% | residual activity [7] 85.6% | residual activity [8] 100% | residual activity [9] 99% | residual activity [10] 93.6% | residual activity [11] 100% | residual activity [12] 100% | residual activity [13] 87.1% | residual activity [14] 100% | inhibition [15] 39.3% | residual activity [17] 66.5% | residual activity [18] 100% | residual activity [19] 100% | residual activity [20] 100% | inhibition [21] 3.43% | residual activity [22] 100% | residual activity [23] 55.1% | residual activity [24] 100% | residual activity [25] 100% | residual activity [26] 100% | residual activity [27] 92.9% | residual activity [28] 83.3% | residual activity [29] 100% | inhibition [30] 16.7% | residual activity [31] 89% | residual activity [32] 91.6% | residual activity [33] 100% | residual activity [34] 77.3% | residual activity [36] 95.3% | residual activity [37] 100% | residual activity [38] 100% | residual activity [39] 99.6% | inhibition [40] -7.14% | residual activity [41] 100% | residual activity [42] 100% | residual activity [43] 100% | residual activity [44] 100% | residual activity [45] 89% | residual activity [46] 100%
